In the test the test system is Human pancreatic cancer cell line AsPC-1. Briefly: Measurement of AsPC-1 cell growth inhibition (AsPC-1 CGI). The conditions noted are these: 96 h. It counts as cell-based. The essentials:
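AsPC-1 cells in 15% FBS RPMI-1640 were exposed to test compound for 96 hours at 37° C, with CellTiter-Glo as endpoint.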

The structures appear in SMILES notation. Starred links: 1 amine or outer side, 2 acyl side, 3 side chain; linkers in the order of their positions; H or OH if unused. Positions of bridges follow the written chain, without caps; N, C: chain ends. Non-standard residues stand in square brackets, D forms with d. Residues, ends and D or L forms follow the SMILES beside them. *: point of attachment. hPhe(3-Cl-4-CF3) = N[C@@H](CCc1ccc(C(F)(F)F)c(Cl)c1)C(=O)O; X88 = O=C([C@H](CCc1ccc(OC(F)(F)F)c(Cl)c1)N[*:1])[*:2]; X60 = CC(C)Oc1cc(CC[C@H](N[*:1])C(=O)[*:2])cc(Cl)c1Cl; X74 = O=C([C@H](CCc1cc(Cl)c(Cl)c(Cl)c1)N[*:1])[*:2]; NMePhe(4-Me) = CN[C@@H](Cc1ccc(C)cc1)C(=O)O; NMedβ3hAla = C[C@H](CC(=O)[*:2])N(C)[*:1]; NMeGly(cPent) = CN[C@H](C(=O)O)C1CCCC1; NMeCha = CN[C@@H](CC1CCCCC1)C(=O)O; NMehLeu = CN[C@@H](CCC(C)C)C(=O)O; Hyp = O=C(O)[C@@H]1C[C@@H](O)CN1; NMeAhp(2) = CCCCC[C@H](NC)C(=O)O; NMeChg = CN[C@H](C(=O)O)C1CCCCC1; NMeI = CC[C@H](C)[C@H](NC)C(=O)O; X61 = O=C(CN(CC1COC1)[*:1])[*:2]; NMeD = CN[C@@H](CC(=O)O)C(=O)O; NMeL = CN[C@@H](CC(C)C)C(=O)O; NMeNle = CCCC[C@H](NC)C(=O)O; NMeV = CN[C@H](C(=O)O)C(C)C; d(β3hA) = C[C@@H](N)CC(=O)O; NMeS = CN[C@@H](CO)C(=O)O; Morpholide = C1CN(*)CCO1; NMeA = CN[C@@H](C)C(=O)O; Piperidide = C1CCN(*)CC1; Pyrrolidide = C1CCN(*)C1; Ac5c = NC1(C(=O)O)CCCC1; Aze = O=C(O)[C@@H]1CCN1; Sar = CNCC(=O)O; Propyl = CCC* Where only a bound is given, the exact number is not on record here.

In the case of `CC[C@H](C)[C@@H]1NC(=O)[C@H](CC(C)C)N(C)C(=O)C[C@@H](C)N(C)C(=O)[C@H](C(C)C)N(C)C(=O)C2(CCCC2)NC(=O)[C@@H]2CCCN2C(=O)[C@H](CCc2ccc(C(F)(F)F)c(Cl)c2)NC(=O)CN(C)C(=O)[C@H](CC2CCCCC2)N(C)C(=O)[C@@H]2CCN2C(=O)[C@H](C)N(C)C1=O` [Compound 1800] (cyclo([Ac5c][NMeV][NMedβ3hAla][NMeL]I[NMeA][Aze][NMeCha][Sar][hPhe(3-Cl-4-CF3)]P)), the IC50 is 50 to 100 nM. As for `CC[C@H](C)[C@@H]1NC(=O)[C@H](CC(C)C)N(C)C(=O)C[C@@H](C)NC(=O)[C@H](C(C)C)N(C)C(=O)C2(CCCC2)NC(=O)[C@@H]2CCCN2C(=O)[C@H](CCc2ccc(C(F)(F)F)c(Cl)c2)NC(=O)CN(C)C(=O)[C@H](Cc2ccc(C)cc2)N(C)C(=O)[C@@H]2CCN2C(=O)[C@H](C)N(C)C1=O` [Compound 1801] (cyclo([Ac5c][NMeV][d(β3hA)][NMeL]I[NMeA][Aze][NMePhe(4-Me)][Sar][hPhe(3-Cl-4-CF3)]P)), the figure is 50 to 100 nM; as for `CCCOC[C@H]1C(=O)N(C)CC(=O)N[C@@H](CCc2ccc(C(F)(F)F)c(Cl)c2)C(=O)N2CCC[C@H]2C(=O)NC2(CCCC2)C(=O)N(C)[C@@H](C2CCCCC2)C(=O)N(C)[C@H](C(=O)N2CCCCC2)CC(=O)N(C)[C@@H](CC(C)C)C(=O)N[C@@H]([C@@H](C)CC)C(=O)N(C)CC(=O)N(C)CC(=O)N1C` [Compound 1805, (3S,9S,18S,21S,25S,28S,34S)-3-[2-[3-chloro-4-(trifluoromethyl)phenyl]ethyl]-28-cyclohexyl-21-isobutyl-7,10,13,16,22,26,29-heptamethyl-18-[(1S)-1-methylpropyl]-25-(piperidine-1-carbonyl)-9-(propoxymethyl)spiro[1,4,7,10,13,16,19,22,26,29,32-undecazabicyclo[32.3.0]heptatriacontane-31,1′-cyclopentane]-2,5,8,11,14,17,20,23,27,30,33-undecone] ([NMeL]I[Sar][Sar][NMeS](Propyl)[Sar][hPhe(3-Cl-4-CF3)]P[Ac5c][NMeChg][NMeD]-Piperidide; lactam N-11), 50 to 100 nM; as for `CC[C@H](C)[C@@H]1NC(=O)[C@H](CC(C)C)N(C)C(=O)C[C@@H](C(=O)N2CCCCC2)N(C)C(=O)[C@H](C(C)C)N(C)C(=O)C2(CCCC2)NC(=O)[C@@H]2CCCN2C(=O)[C@H](CCc2ccc(C(F)(F)F)c(Cl)c2)NC(=O)CN(C)C(=O)[C@H](Cc2ccc(C)cc2)N(C)C(=O)[C@@H]2CCN2C(=O)[C@H](C)N(C)C1=O` [Compound 1828] ([NMeL]I[NMeA][Aze][NMePhe(4-Me)][Sar][hPhe(3-Cl-4-CF3)]P[Ac5c][NMeV][NMeD]-Piperidide; lactam N-11), 100 to 500 nM. As for `CC[C@H](C)[C@@H]1NC(=O)[C@H](CCC(C)C)N(C)C(=O)C[C@@H](C(=O)N2CCCCC2)N(C)C(=O)[C@H](C(C)C)N(C)C(=O)C2(CCCC2)NC(=O)[C@@H]2CCCN2C(=O)[C@H](CCc2ccc(C(F)(F)F)c(Cl)c2)NC(=O)CN(C)C(=O)[C@H](CC2CCCCC2)N(C)C(=O)[C@@H]2CCN2C(=O)[C@H](C)N(C)C1=O` [Compound 1833] ([NMehLeu]I[NMeA][Aze][NMeCha][Sar][hPhe(3-Cl-4-CF3)]P[Ac5c][NMeV][NMeD]-Piperidide; lactam N-11), the figure is 100 to 500 nM; as for `CCO[C@@H]1C[C@H]2C(=O)NC3(CCCC3)C(=O)N(C)[C@@H](CC(C)C)C(=O)N(C)[C@H](C)CC(=O)N(C)[C@@H](CC(C)C)C(=O)N[C@@H]([C@@H](C)CC)C(=O)N(C)CC(=O)N(C)CC(=O)N(C)[C@@H](CC3CCCCC3)C(=O)N(C)CC(=O)N[C@@H](CCc3ccc(C(F)(F)F)c(Cl)c3)C(=O)N2C1` [Compound 1851] (cyclo([Ac5c][NMeL][NMedβ3hAla][NMeL]I[Sar][Sar][NMeCha][Sar][hPhe(3-Cl-4-CF3)][Hyp](Et))), 20 to 50 nM. As for `CC[C@H](C)[C@@H]1NC(=O)[C@H](CC(C)C)N(C)C(=O)C[C@@H](C(=O)N2CCCC2)N(C)C(=O)[C@H](C2CCCCC2)N(C)C(=O)C2(CCCC2)NC(=O)[C@@H]2CCCN2C(=O)[C@H](CCc2ccc(C(F)(F)F)c(Cl)c2)NC(=O)CN(C)C(=O)[C@H](Cc2ccc(C)cc2)N(C)C(=O)[C@@H]2CCN2C(=O)[C@H](C)N(C)C1=O` [Compound 1852] ([NMeL]I[NMeA][Aze][NMePhe(4-Me)][Sar][hPhe(3-Cl-4-CF3)]P[Ac5c][NMeChg][NMeD]-Pyrrolidide; lactam N-11), the figure is 20 to 50 nM; as for `CCCCC[C@H]1C(=O)N(C)CC(=O)N[C@@H](CCc2ccc(C(F)(F)F)c(Cl)c2)C(=O)N2CCC[C@H]2C(=O)NC2(CCCC2)C(=O)N(C)[C@@H](C(C)C)C(=O)N(C)[C@H](C(=O)N2CCCCC2)CC(=O)N(C)[C@@H](CC(C)C)C(=O)N[C@@H]([C@@H](C)CC)C(=O)N(C)[C@@H](C)C(=O)N2CC[C@H]2C(=O)N1C` [Compound 1854] ([NMeL]I[NMeA][Aze][NMeAhp(2)][Sar][hPhe(3-Cl-4-CF3)]P[Ac5c][NMeV][NMeD]-Piperidide; lactam N-11), 100 to 500 nM; as for `CCCC[C@H]1C(=O)N(C)[C@H](C(=O)N2CCCCC2)CC(=O)N(C)[C@@H](CC(C)C)C(=O)N[C@@H]([C@@H](C)CC)C(=O)N(C)[C@@H](C)C(=O)N2CC[C@H]2C(=O)N(C)[C@@H](CC2CCCCC2)C(=O)N(C)CC(=O)N[C@@H](CCc2ccc(C(F)(F)F)c(Cl)c2)C(=O)N2CCC[C@H]2C(=O)NC2(CCCC2)C(=O)N1C` [Compound 1859] ([NMeL]I[NMeA][Aze][NMeCha][Sar][hPhe(3-Cl-4-CF3)]P[Ac5c][NMeNle][NMeD]-Piperidide; lactam N-11), 100 to 500 nM. The compound `CC[C@H](C)[C@@H]1NC(=O)[C@H]([C@@H](C)CC)N(C)C(=O)C[C@@H](C(=O)N2CCCCC2)N(C)C(=O)[C@H](C(C)C)N(C)C(=O)C2(CCCC2)NC(=O)[C@@H]2CCCN2C(=O)[C@H](CCc2ccc(C(F)(F)F)c(Cl)c2)NC(=O)CN(C)C(=O)[C@H](CC2CCCCC2)N(C)C(=O)[C@@H]2CCN2C(=O)[C@H](C)N(C)C1=O` [Compound 1863] ([NMeI]I[NMeA][Aze][NMeCha][Sar][hPhe(3-Cl-4-CF3)]P[Ac5c][NMeV][NMeD]-Piperidide; lactam N-11) displayed an IC50 of 100 to 500 nM. As for `CC[C@H](C)[C@@H]1NC(=O)[C@H](CC(C)C)N(C)C(=O)C[C@@H](C(=O)N2CCCC2)N(C)C(=O)[C@H](C(C)C)N(C)C(=O)C2(CCCC2)NC(=O)[C@@H]2CCCN2C(=O)[C@H](CCc2ccc(C(F)(F)F)c(Cl)c2)NC(=O)CN(C)C(=O)[C@H](Cc2ccc(C)cc2)N(C)C(=O)[C@@H]2CCN2C(=O)[C@H](C)N(C)C1=O` [Compound 1866] ([NMeL]I[NMeA][Aze][NMePhe(4-Me)][Sar][hPhe(3-Cl-4-CF3)]P[Ac5c][NMeV][NMeD]-Pyrrolidide; lactam N-11), the figure is 100 to 500 nM; as for `CCCOC[C@H]1C(=O)N(C)CC(=O)N[C@@H](CCc2ccc(C(F)(F)F)c(Cl)c2)C(=O)N2CCC[C@H]2C(=O)NC2(CCCC2)C(=O)N(C)[C@@H](C2CCCCC2)C(=O)N(C)[C@H](C(=O)N2CCOCC2)CC(=O)N(C)[C@@H](CC(C)C)C(=O)N[C@@H]([C@@H](C)CC)C(=O)N(C)CC(=O)N(C)CC(=O)N1C` [Compound 1966] ([NMeL]I[Sar][Sar][NMeS](Propyl)[Sar][hPhe(3-Cl-4-CF3)]P[Ac5c][NMeChg][NMeD]-Morpholide; lactam N-11), 50 to 100 nM.

As to `CC[C@H](C)[C@@H]1NC(=O)[C@H](CC(C)C)N(C)C(=O)C[C@@H](C(=O)N2CCCCC2)N(C)C(=O)[C@H](C2CCCCC2)N(C)C(=O)C2(CCCC2)NC(=O)CN(CC2COC2)C(=O)[C@H](CCc2ccc(C(F)(F)F)c(Cl)c2)NC(=O)CN(C)C(=O)[C@H](CC2CCCCC2)N(C)C(=O)CN(C)C(=O)CN(C)C1=O` [Compound 2031] ([NMeL]I[Sar][Sar][NMeCha][Sar][hPhe(3-Cl-4-CF3)][X61][Ac5c][NMeChg][NMeD]-Piperidide; lactam N-11), the IC50 lay in the range of 100 to 500 nM. As for `CC[C@H](C)[C@@H]1NC(=O)[C@H](CC(C)C)N(C)C(=O)C[C@@H](C(=O)N2CCCCC2)N(C)C(=O)[C@H](C2CCCC2)N(C)C(=O)C2(CCCC2)NC(=O)[C@@H]2CCCN2C(=O)[C@H](CCc2ccc(OC(F)(F)F)c(Cl)c2)NC(=O)CN(C)C(=O)[C@H](CC2CCCCC2)N(C)C(=O)[C@@H]2CCN2C(=O)[C@H](C)N(C)C1=O` [Compound 2057] ([NMeL]I[NMeA][Aze][NMeCha][Sar][X88]P[Ac5c][NMeGly(cPent)][NMeD]-Piperidide; lactam N-11), the figure is 50 to 100 nM; as for `CC[C@H](C)[C@@H]1NC(=O)[C@H](C)N(C)C(=O)C[C@@H](C(=O)N2CCCCC2)N(C)C(=O)[C@H](C2CCCCC2)N(C)C(=O)C2(CCCC2)NC(=O)[C@@H]2CCCN2C(=O)[C@H](CCc2cc(Cl)c(Cl)c(Cl)c2)NC(=O)CN(C)C(=O)[C@H](CC2CCCCC2)N(C)C(=O)CN(C)C(=O)CN(C)C1=O` [Compound 2059, (3S,9S,18S,21S,25S,28S,34S)-28-cyclohexyl-9-(cyclohexylmethyl)-7,10,13,16,21,22,26,29-octamethyl-18-[(1S)-1-methylpropyl]-25-(piperidine-1-carbonyl)-3-[2-(3,4,5-trichlorophenyl)ethyl]spiro[1,4,7,10,13,16,19,22,26,29,32-undecazabicyclo[32.3.0]heptatriacontane-31,1′-cyclopentane]-2,5,8,11,14,17,20,23,27,30,33-undecone] ([NMeA]I[Sar][Sar][NMeCha][Sar][X74]P[Ac5c][NMeChg][NMeD]-Piperidide; lactam N-11), 100 to 500 nM; as for `CC[C@H](C)[C@@H]1NC(=O)[C@H](C)N(C)C(=O)C[C@@H](C(=O)N2CCCCC2)N(C)C(=O)[C@H](C2CCCCC2)N(C)C(=O)C2(CCCC2)NC(=O)[C@@H]2CCCN2C(=O)[C@H](CCc2cc(Cl)c(Cl)c(OC(C)C)c2)NC(=O)CN(C)C(=O)[C@H](CC2CCCCC2)N(C)C(=O)CN(C)C(=O)CN(C)C1=O` [Compound 2062] ([NMeA]I[Sar][Sar][NMeCha][Sar][X60]P[Ac5c][NMeChg][NMeD]-Piperidide; lactam N-11; C-terminus assumed), more than 500 nM.

As a reminder, the IC50 is the concentration at which inhibition is half-maximal. Low values mean inhibition by little substance, high ones a need for much substance.

(Values after patent publication US12371454B2, “Cyclic peptide compound having Kras inhibitory action” (priority 2019, dated 2025).)
